Measurements: patent US10131652B2, “Pyrimidinyloxy benzene derivatives as herbicides” (E. I. DU PONT DE NEMOURS AND COMPANY, priority 2014, dated 2018)
Read-outs that look alike come from different tables or passages of the source.

What was measured:
Format in all cases: in vivo
[1] = test system: chamomile (scentless chamomile, Matricaria inodora); test: Test E pre-/postemergence plant response; details: Tripleurospermum inodorum, post-emergence, Postemergence, scale 0 to 100, read-out: Plant response rating, Chamomile
In short: (§1)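 Visual scores on a 0–100 scale (100 = complete control) were assigned against untreated controls 7–21 days after treatment in a controlled environment. Compounds, formulated with solvent plus surfactant, were applied to pre-emergence silt-loam sowings or to 1- to 4-leaf plants (2–18 cm) in potting medium.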

[2] = test system: green foxtail (Setaria viridis); test: Test E pre-/postemergence plant response; details: scale 0 to 100, read-out: Plant response rating, Foxtail, Green; for pest or weed control at 16 g/ha: 16 g ai/ha; for pest or weed control at 31 g/ha: 31 g ai/ha; for pest or weed control at 62 g/ha: 62 g ai/ha; for pest or weed control at 125 g/ha: 125 g ai/ha
In short: as §1

[3] = test system: pigweed (Amaranthus retroflexus); test: Test E pre-/postemergence plant response; details: scale 0 to 100, read-out: Plant response rating, Pigweed; for pest or weed control at 16 g/ha: 16 g ai/ha; for pest or weed control at 31 g/ha: 31 g ai/ha; for pest or weed control at 62 g/ha: 62 g ai/ha; for pest or weed control at 125 g/ha: 125 g ai/ha
In short: as §1

[4] = test system: wild mustard (Sinapis arvensis); test: Test E pre-/postemergence plant response; details: Brassica, scale 0 to 100, read-out: Plant response rating, Mustard, Wild; for pest or weed control at 16 g/ha: 16 g ai/ha; for pest or weed control at 31 g/ha: 31 g ai/ha; for pest or weed control at 62 g/ha: 62 g ai/ha; for pest or weed control at 125 g/ha: 125 g ai/ha
In short: as §1

Horseweed = test: Test F postemergence plant response; details: scale 0 to 100
[5] = test system: water seeded rice seedlings (Indica rice, Oryza sativa); test: Test G flooded paddy rice/weed plant response; details: Flood, 21 days, scale 0 to 100 (0 no effect, 100 complete control)
Source text: (§2) Three plastic pots (ca. 16-cm diameter) per rate were partially filled with sterilized Tama silt loam soil comprising a 35:50:15 ratio of sand, silt and clay and 2.6% organic matter. Separate plantings for each of the three pots were as follows. Seeds from the U.S. of monochoria (Monochoria vaginalis), small-flower umbrella sedge (Cyperus difformis), hardstem bulrush (Scirpus juncoides), and redstem (purple redstem, Ammannia coccinea), were planted into one 16-cm pot for each rate. Seeds from the U.S. of rice flatsedge (Cyperus iria), bearded sprangletop (Leptochloa fascicularis), one stand of 9 or 10 water seeded rice seedlings (Indica rice, Oryza sativa), and two stands of 3 or 4 transplanted rice seedlings (Oryza sativa cv. ‘Japonica—M202’) were planted into one 16-cm pot for each rate. Seeds from the U.S. of bamyardgrass (Echinochloa crus-galli), and late watergrass (Echinochloa oryzicola) were planted into one 16-cm pot for each rate. Plantings were sequential so that crop and weed species were at the 2.0 to 2.5-leaf stage at time of treatment.
(§3) Potted plants were grown in a greenhouse with day/night temperature settings of 30/27° C., and supplemental balanced lighting was provided to maintain a 16-hour photoperiod. Test pots were maintained in the greenhouse until test completion.
(§4) At time of treatment, test pots were flooded to 3 cm above the soil surface, treated by application of test compounds directly to the paddy water, and then maintained at that water depth for the duration of the test. Effects of treatments on rice and weeds were visually evaluated by comparison to untreated controls after 21 days. Plant response ratings, summarized in Table G, are based on a scale of 0 to 100 where 0 is no effect and 100 is complete control. A dash (-) response means no test result.

[6] = test system: barnyardgrass (Echinochloa crus-galli); test: Test G flooded paddy rice/weed plant response; details: Flood, 21 days, scale 0 to 100 (0 no effect, 100 complete control)
Source text: as §2, §3, §4

[7] = test system: transplanted rice seedlings (Oryza sativa cv. ‘Japonica—M202’); test: Test G flooded paddy rice/weed plant response; details: Flood, 21 days, scale 0 to 100 (0 no effect, 100 complete control)
Source text: as §2, §3, §4

[8] = test system: small-flower umbrella sedge (Cyperus difformis); test: Test G flooded paddy rice/weed plant response; details: Flood, 21 days, scale 0 to 100 (0 no effect, 100 complete control)
Source text: as §2, §3, §4

[9] = test system: rice flatsedge (Cyperus iria); test: Test G flooded paddy rice/weed plant response; details: Flood, 21 days, scale 0 to 100 (0 no effect, 100 complete control)
Source text: as §2, §3, §4

[10] = test system: late watergrass (Echinochloa oryzicola); test: Test G flooded paddy rice/weed plant response; details: Flood, 21 days, scale 0 to 100 (0 no effect, 100 complete control)
Source text: as §2, §3, §4

Compound `Fc1cccc(Oc2ncc(Cl)cn2)c1-c1cc(C(F)F)on1` [Compound 55, 5-chloro-2-[2-[5-(difluoromethyl)-3-isoxazolyl]-3-fluorophenoxy]pyrimidine] has a pest or weed control at 16 g/ha ([1]; 16 g ai/ha) of 5%, a pest or weed control at 31 g/ha ([1]; 31 g ai/ha) of 5% and a pest or weed control at 62 g/ha ([1]; 62 g ai/ha) of 5%. It also gave a pest or weed control at 125 g/ha ([1]; 125 g ai/ha) of 5%, a pest or weed control at 16 g/ha ([2]; post-emergence, Postemergence) of 30% and a pest or weed control at 31 g/ha ([2]; post-emergence, Postemergence) of 45%. The pest or weed control at 62 g/ha ([2]; post-emergence, Postemergence) was 50%, the pest or weed control at 125 g/ha ([2]; post-emergence, Postemergence) was 60% and the pest or weed control at 16 g/ha ([2]; pre-emergence, Preemergence) was 10%. For the same compound, the pest or weed control at 31 g/ha ([2]; pre-emergence, Preemergence) was 25%, the pest or weed control at 62 g/ha ([2]; pre-emergence, Preemergence) was 100% and the pest or weed control at 125 g/ha ([2]; pre-emergence, Preemergence) was 100%. It also gave a pest or weed control at 16 g/ha ([3]; post-emergence, Postemergence) of 85%, a pest or weed control at 31 g/ha ([3]; post-emergence, Postemergence) of 90% and a pest or weed control at 62 g/ha ([3]; post-emergence, Postemergence) of 95%. It also gave a pest or weed control at 125 g/ha ([3]; post-emergence, Postemergence) of 95%, a pest or weed control at 16 g/ha ([3]; pre-emergence, Preemergence) of 75% and a pest or weed control at 31 g/ha ([3]; pre-emergence, Preemergence) of 100%. It also gave a pest or weed control at 62 g/ha ([3]; pre-emergence, Preemergence) of 100%, a pest or weed control at 125 g/ha ([3]; pre-emergence, Preemergence) of 100% and a pest or weed control at 16 g/ha ([4]; post-emergence, Postemergence) of 70%. The pest or weed control at 31 g/ha ([4]; post-emergence, Postemergence) was 85%, the pest or weed control at 62 g/ha ([4]; post-emergence, Postemergence) was 95% and the pest or weed control at 125 g/ha ([4]; post-emergence, Postemergence) was 95%. It also gave a pest or weed control at 16 g/ha ([4]; pre-emergence, Preemergence) of 80%, a pest or weed control at 31 g/ha ([4]; pre-emergence, Preemergence) of 100% and a pest or weed control at 62 g/ha ([4]; pre-emergence, Preemergence) of 100%. For the same compound, the pest or weed control at 125 g/ha ([4]; pre-emergence, Preemergence) was 100%, the “Plant response rating, Horseweed” value (Horseweed; 31 g ai/ha Postemergence) was 15 and the “Plant response rating, Horseweed” value (Horseweed; 62 g ai/ha Postemergence) was 20. For the same compound, the “Plant response rating, Rice, Water Seeded” value ([5]; 32 g ai/ha) was 45, the “Plant response rating, Rice, Water Seeded” value ([5]; 64 g ai/ha) was 100 and the “Plant response rating, Rice, Water Seeded” value ([5]; 125 g ai/ha) was 100. For the same compound, the “Plant response rating, Rice, Water Seeded” value ([5]; 250 g ai/ha) was 100, the “Plant response rating, Barnyardgrass” value ([6]; 32 g ai/ha) was 0 and the “Plant response rating, Barnyardgrass” value ([6]; 64 g ai/ha) was 75. The “Plant response rating, Barnyardgrass” value ([6]; 125 g ai/ha) was 100, the “Plant response rating, Barnyardgrass” value ([6]; 250 g ai/ha) was 100 and the “Plant response rating, Rice, Transplanted” value ([7]; 32 g ai/ha) was 20. The “Plant response rating, Rice, Transplanted” value ([7]; 64 g ai/ha) was 60, the “Plant response rating, Rice, Transplanted” value ([7]; 125 g ai/ha) was 80 and the “Plant response rating, Rice, Transplanted” value ([7]; 250 g ai/ha) was 100. The “Plant response rating, Sedge, Umbrella” value ([8]; 32 g ai/ha) was 98, the “Plant response rating, Sedge, Umbrella” value ([8]; 64 g ai/ha) was 100 and the “Plant response rating, Sedge, Umbrella” value ([8]; 125 g ai/ha) was 100. For the same compound, the “Plant response rating, Sedge, Umbrella” value ([8]; 250 g ai/ha) was 100, the “Plant response rating, Flatsedge, Rice” value ([9]; 32 g ai/ha) was 85 and the “Plant response rating, Flatsedge, Rice” value ([9]; 64 g ai/ha) was 100. For the same compound, the “Plant response rating, Flatsedge, Rice” value ([9]; 125 g ai/ha) was 100, the “Plant response rating, Flatsedge, Rice” value ([9]; 250 g ai/ha) was 100 and the “Plant response rating, Watergrass, Late” value ([10]; 32 g ai/ha) was 0. The “Plant response rating, Watergrass, Late” value ([10]; 64 g ai/ha) was 0, the “Plant response rating, Watergrass, Late” value ([10]; 125 g ai/ha) was 75 and the “Plant response rating, Watergrass, Late” value ([10]; 250 g ai/ha) was 100.
